Laboratory results from PMC6923382, “Small molecules that inhibit TNF signalling by stabilising an asymmetric form of the trimer” (Nature Communications, 2019).
Several values for one entry are separate records, joined by “and”; a condition that tells them apart may be missing. Equal entries are not always repeated. Where two headings read alike, the source gives them in different places.

Key:
[1] = biological target: T1, mouse TNF (Mus musculus, UniProt P06804); test: Mouse TNF induced neutrophil recruitment in vivo; settings: for CD45+ GR-1+ cells/mL in the peritoneal cavity: mouse TNF, individual mice
T1 construct: stabilise an asymmetrical form of the soluble TNF trimer
T1 sequence (P06804 80-235 limits assumed): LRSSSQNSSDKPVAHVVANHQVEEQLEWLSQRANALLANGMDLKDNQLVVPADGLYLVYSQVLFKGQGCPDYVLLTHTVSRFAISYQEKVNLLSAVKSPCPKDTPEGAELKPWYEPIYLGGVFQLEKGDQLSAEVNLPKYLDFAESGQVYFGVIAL
Procedure: All in vivo studies were reviewed by an internal Ethical Review Body (ERB) and conducted in accordance with the Animals (Scientific Procedures) Act 1986, EU Directive 2010/63/EU. […] Anti-TNFα biologics, CDP571[21] (10 mg/kg) and etanercept (30 mg/kg), diluted in PBS, were dosed intravenously prior to human and mouse TNF challenge. Two hours after the TNF challenge, mice were sacrificed and the peritoneal cavity lavaged with 3 mL of FACS buffer. An aliquot (0.3 mL) of lavage fluid was used to assess the number CD45^+GR1^+ cells by flow cytometry. Briefly, the cells were treated with ACK lysis buffer, washed and suspended in FACS buffer prior to staining with FITC anti-mouse CD45 and PE anti-mouse GR1. Data are shown as mean ± standard error of the number of CD45^+GR-1^+ cells. Statistical significance (*p < 0.05, **p < 0.01, ****p < 0.0001) was determined using one-way ANOVA with Dunnett’s multiple comparison test.

[2] = Blood exposure of UCB-9260 in the mouse models; assay type: in vivo; settings: for concentration at 1 h: zymosan model
[3] = 150mg/kg, CAIA model, individual mice

## Cc1ccc(C)c(Cn2c(C(O)c3ccncc3)nc3ccc(-c4cnn(C)c4)cc32)c1 (stereo not shown) [UCB-9260]
[1]; 10mg/kg
  CD45+ GR-1+ cells/mL in the peritoneal cavity: 36683.8 cells/mL and 23446.5 cells/mL and 65459.0 cells/mL and 42287.7 cells/mL and 32860.3 cells/mL and 46170.3 cells/mL and 36366.5 cells/mL
[1]; 30mg/kg
  CD45+ GR-1+ cells/mL in the peritoneal cavity: 68892.4 cells/mL and 37218.6 cells/mL and 45217.2 cells/mL and 30219.5 cells/mL and 27497.1 cells/mL and 16597.5 cells/mL
[1]; 100mg/kg
  CD45+ GR-1+ cells/mL in the peritoneal cavity: 11514.8 cells/mL and 33134.0 cells/mL and 13657.2 cells/mL and 18518.9 cells/mL and 17977.4 cells/mL and 18837.9 cells/mL and 21785.8 cells/mL and 22316.6 cells/mL
[1]; 300mg/kg
  CD45+ GR-1+ cells/mL in the peritoneal cavity: 6821.7 cells/mL and 12941.2 cells/mL and 5881.9 cells/mL and 6788.4 cells/mL and 5482.5 cells/mL and 47242.4 cells/mL and 15367.3 cells/mL and 2338.2 cells/mL
[1]; oral, murine TNF i.p., CD45+GR1+ cells
  dose with significant inhibition of neutrophil recruitment: 10 mg/kg
[2]; 10mg/kg, human TNF neutrophilia model, individual mice, 0.5h post dose, read-out: Total exposure
  concentration at 0.5 h: 474.6 nM and 924.2 nM and 1089.9 nM
[2]; 10mg/kg, human TNF neutrophilia model, individual mice, read-out: Free exposure
  concentration at 0.5 h: 26.2 nM and 11.4 nM and 22.2 nM
[2]; 10mg/kg, mouse TNF neutrophilia model, individual mice, 0.5h post dose, read-out: Total exposure
  concentration at 0.5 h: 1244.4 nM and 1494.9 nM
[2]; 10mg/kg, mouse TNF neutrophilia model, individual mice, read-out: Free exposure
  concentration at 0.5 h: 29.2 nM and 29.9 nM
[2]; 10mg/kg, individual mice, read-out: free exposure 1h post dose
  concentration at 1 h: 2.5 nM and 2.4 nM and 0.6 nM and 1.0 nM and 1.8 nM and 4.0 nM and 2.1 nM and 2.3 nM
[2]; 10mg/kg, individual mice, read-out: total exposure 1h post dose
  concentration at 1 h: 102.2 nM and 99.4 nM and 24.6 nM and 40.4 nM and 74.6 nM and 166.9 nM and 86.4 nM and 96.3 nM
[2]; 30mg/kg, human TNF neutrophilia model, individual mice, 0.5h post dose, read-out: Total exposure
  concentration at 0.5 h: 10561.3 nM and 11259.5 nM and 3572.5 nM
[2]; 30mg/kg, human TNF neutrophilia model, individual mice, read-out: Free exposure
  concentration at 0.5 h: 85.7 nM and 253.5 nM and 270.2 nM
[2]; 30mg/kg, mouse TNF neutrophilia model, individual mice, 0.5h post dose, read-out: Total exposure
  concentration at 0.5 h: 7504.0 nM and 10604.5 nM
[2]; 30mg/kg, mouse TNF neutrophilia model, individual mice, read-out: Free exposure
  concentration at 0.5 h: 239.5 nM and 180.1 nM
[2]; 30mg/kg, individual mice, read-out: free exposure 1h post dose
  concentration at 1 h: 92.9 nM and 80.2 nM and 78.8 nM and 67.6 nM and 46.9 nM and 54.7 nM and 89.2 nM
[2]; 30mg/kg, individual mice, read-out: total exposure 1h post dose
  concentration at 1 h: 3868.9 nM and 3340.4 nM and 3284.9 nM and 2814.8 nM and 1955.1 nM and 2278.1 nM and 3715.9 nM
[2]; 100mg/kg, human TNF neutrophilia model, individual mice, 0.5h post dose, read-out: Total exposure
  concentration at 0.5 h: 23486.3 nM and 36904.4 nM
[2]; 100mg/kg, human TNF neutrophilia model, individual mice, read-out: Free exposure
  concentration at 0.5 h: 698.5 nM and 563.7 nM
[2]; 100mg/kg, mouse TNF neutrophilia model, individual mice, 0.5h post dose, read-out: Total exposure
  concentration at 0.5 h: 80513.8 nM and 31681.7 nM
[2]; 100mg/kg, mouse TNF neutrophilia model, individual mice, read-out: Free exposure
  concentration at 0.5 h: 760.4 nM and 1932.3 nM
[2]; 100mg/kg, individual mice, read-out: free exposure 1h post dose
  concentration at 1 h: 700.8 nM and 684.7 nM and 194.3 nM and 787.1 nM and 495.2 nM and 309.3 nM and 1017.0 nM and 852.7 nM
[2]; 100mg/kg, individual mice, read-out: total exposure 1h post dose
  concentration at 1 h: 29201.0 nM and 28529.7 nM and 8095.9 nM and 32795.2 nM and 20631.9 nM and 12886.1 nM and 42373.7 nM and 35527.1 nM
[2]; 150 mg/kg B.I.D., CAIA model
  Cave post 1st dose (free): 307 ± 74 nM
  Cave post 1st dose total: 12,808 ± 3,070 nM
[2]; [3]
  Free UCB-9260, 1 hour: 535.0 nM and 406.9 nM and 100.9 nM and 971.5 nM and 479.3 nM
  Free UCB-9260, 6 hour: 368.0 nM and 6.0 nM and 50.3 nM and 428.5 nM and 99.9 nM
  Total UCB-9260, 1 hour: 22.292 µM and 16.9554 µM and 4.206 µM and 40.4784 µM and 19.9726 µM and 13.3543 µM
  Total UCB-9260, 6 hour: 15.3347 µM and 0.2521 µM and 2.096 µM and 17.8525 µM and 4.1624 µM and 34.4762 µM
[2]; 300mg/kg, human TNF neutrophilia model, individual mice, 0.5h post dose, read-out: Total exposure
  concentration at 0.5 h: 57489.1 nM and 49482.4 nM
[2]; 300mg/kg, human TNF neutrophilia model, individual mice, read-out: Free exposure
  concentration at 0.5 h: 996.6 nM and 1379.7 nM
[2]; 300mg/kg, mouse TNF neutrophilia model, individual mice, 0.5h post dose, read-out: Total exposure
  concentration at 0.5 h: 47166.3 nM and 48883.6 nM
[2]; 300mg/kg, mouse TNF neutrophilia model, individual mice, read-out: Free exposure
  concentration at 0.5 h: 1511.9 nM and 1132.0 nM
[2]; 300mg/kg, individual mice, read-out: free exposure 1h post dose
  concentration at 1 h: 551.7 nM and 816.2 nM and 450.0 nM and 187.4 nM and 584.7 nM and 1013.9 nM and 538.9 nM and 1275.4 nM
[2]; 300mg/kg, individual mice, read-out: total exposure 1h post dose
  concentration at 1 h: 22987.2 nM and 34009.1 nM and 18750.9 nM and 7806.7 nM and 24360.9 nM and 42244.6 nM and 22455.4 nM and 53141.6 nM
[2]; Balb/c, mouse, blood, oral, 10 mg/kg, 10 mg/kg p.o., human TNF neutrophilia model, mean n=3 ± s.e.m., read-out: Blood concentration 0.5h post dose total
  concentration at 0.5 h: 830 ± 184 nM
[2]; Balb/c, mouse, blood, oral, 10 mg/kg, 10 mg/kg p.o., mouse TNF neutrophilia model, Fu 2.4%, read-out: Blood concentration 0.5h post dose (free)
  concentration at 0.5 h: 32 ± 2 nM
[2]; Balb/c, mouse, blood, oral, 10 mg/kg, 10 mg/kg p.o., mouse TNF neutrophilia model, mean n=3 ± s.e.m., read-out: Blood concentration 0.5h post dose total
  concentration at 0.5 h: 1320 nM
[2]; Balb/c, mouse, blood, oral, 10 mg/kg, mouse TNF neutrophilia model, individual mice, 0.5h post dose, read-out: Total exposure
  concentration at 0.5 h: 1220 nM
[2]; Balb/c, mouse, blood, oral, 10 mg/kg, mouse TNF neutrophilia model, individual mice, read-out: Free exposure
  concentration at 0.5 h: 35.9 nM
[2]; Balb/c, mouse, blood, oral, 30 mg/kg, 30 mg/kg p.o., mouse TNF neutrophilia model, Fu 2.4%, read-out: Blood concentration 0.5h post dose (free)
  concentration at 0.5 h: 225 ± 23 nM
[2]; Balb/c, mouse, blood, oral, 30 mg/kg, 30 mg/kg p.o., mouse TNF neutrophilia model, mean n=3 ± s.e.m., read-out: Blood concentration 0.5h post dose total
  concentration at 0.5 h: 9360 nM
[2]; Balb/c, mouse, blood, oral, 30 mg/kg, mouse TNF neutrophilia model, individual mice, 0.5h post dose, read-out: Total exposure
  concentration at 0.5 h: 9980 nM
